{
  "source": "paper PMC3871271",
  "about": "(FEBS Open Bio, 2013)",
  "design_in_all_cases": "species or system Scherffelia dubia",
  "key": {"[1]": {"test_system": "C-SdCen E144A", "experiment": "ITC binding of target peptides to C-SdCen E144A", "details": "for factor of decrease in affinity by E144A: absence of calcium; for TΔS / ΔG: pH 7.5; for TΔS: from ΔG = ΔH − TΔS; for ΔG: ΔG = −RTln(1/Ka); for ΔΔH: difference in binding enthalpy SdCen wt vs E144A"}, "[2]": {"test_system": "C-SdCen F109L-E144A", "experiment": "ITC binding of target peptides to C-SdCen F109L-E144A", "details": "for TΔS / ΔG: F109L-E144A, pH 7.5; for TΔS: from ΔG = ΔH − TΔS; for ΔG: ΔG = −RTln(1/Ka); for ΔΔH: difference in binding enthalpy SdCen wt vs F109L-E144A; for ΔΔH / ΔΔG: EDTA 2 mM; for ΔΔG: difference in free energy SdCen wt vs F109L-E144A"}, "[3]": {"test_system": "C-SdCen F109L", "experiment": "ITC binding of target peptides to C-SdCen F109L", "details": "for factor of increase in change in enthalpy (ΔH) / factor of reduction of binding constant by F109L: EDTA; for TΔS / ΔG: F109L, pH 7.5; for TΔS: from ΔG = ΔH − TΔS; for ΔG: ΔG = −RTln(1/Ka); for ΔΔH: difference in binding enthalpy SdCen wt vs F109L; for ΔΔH / ΔΔG: EDTA 2 mM; for ΔΔG: difference in free energy SdCen wt vs F109L"}, "[4]": {"test_system": "C-SdCen WT (C-terminal domain M93-F168 of SdCen)", "experiment": "ITC binding of target peptides to wild-type C-SdCen", "details": "for Ka / ΔH: MOPS 50 mM, NaCl 100 mM, SD of fit in parenthesis; for Ka / ΔH / TΔS / ΔG: pH 7.5; for TΔS: from ΔG = ΔH − TΔS; for ΔG: ΔG = −RTln(1/Ka); for effect of calcium on binding (in words): presence vs absence of calcium"}, "[5]": {"details": "E144A, 30 °C, no Ca2+ (EDTA 2 mM)"}},
  "note": "Entries after “also recorded” stand apart in the source; their conditions may differ.",
  "data": [
    {"substance": "846-NWKLLAKGLLIRERLKR-863 [P17-XPC]", "values": [
      {"measurement": "factor of decrease in affinity by E144A", "setting": "[1]; E144A vs WT, 30 °C", "result": 3},
      {"measurement": "factor of decrease in affinity by E144A", "setting": "[1]; E144A vs WT, 37 °C", "result": 4},
      {"measurement": "ΔH compared to wild type (in words)", "setting": "[1]; E144A vs WT, EDTA", "result": "the same as for the wild type"},
      {"measurement": "effect of E144A mutation on binding (in words)", "setting": "[1]; E144A vs WT, listed as XPC", "result": "reduced the binding to XPC"},
      {"measurement": "TΔS", "setting": "[1]; E144A, 30 °C, Ca2+ 2 mM", "result": -9.36, "unit": "kcal/mol"},
      {"measurement": "ΔG", "setting": "[1]; E144A, 30 °C, Ca2+ 2 mM", "result": -11.08, "unit": "kcal/mol"},
      {"measurement": "TΔS", "setting": "[1]; [5]", "result": -19.78, "unit": "kcal/mol"},
      {"measurement": "ΔG", "setting": "[1]; [5]", "result": -9.72, "unit": "kcal/mol"},
      {"measurement": "TΔS", "setting": "[1]; E144A, 37 °C, Ca2+ 2 mM", "result": -13.76, "unit": "kcal/mol"},
      {"measurement": "ΔG", "setting": "[1]; E144A, 37 °C, Ca2+ 2 mM", "result": -11.41, "unit": "kcal/mol"},
      {"measurement": "TΔS", "setting": "[1]; E144A, 37 °C, no Ca2+ (EDTA 2 mM)", "result": -28.66, "unit": "kcal/mol"},
      {"measurement": "effect of calcium on affinity (in words)", "setting": "[1]; E144A, presence vs absence of calcium", "result": "addition of calcium enhanced the affinity"},
      {"measurement": "ΔΔH", "setting": "[1]; 30 °C, EDTA 2 mM", "result": -4.3, "unit": "kcal/mol"},
      {"measurement": "ΔΔH", "setting": "[1]; 37 °C, EDTA 2 mM", "result": -2.2, "unit": "kcal/mol"},
      {"measurement": "ΔΔG", "setting": "[1]; difference in free energy SdCen wt vs E144A, 30 °C, EDTA 2 mM", "result": -0.69, "unit": "kcal/mol"},
      {"measurement": "effect of F109L-E144A mutation on binding (in words)", "setting": "[2]; F109L-E144A vs WT and single mutants, listed as XPC", "result": "enhanced the negative effect of the two single mutations on XPC binding; also recorded: further reduced XPC binding"},
      {"measurement": "TΔS", "setting": "[2]; 30 °C, Ca2+ 2 mM", "result": -3.69, "unit": "kcal/mol"},
      {"measurement": "ΔG", "setting": "[2]; 30 °C, Ca2+ 2 mM", "result": -10.42, "unit": "kcal/mol"},
      {"measurement": "ΔG", "setting": "[2]; 30 °C, no Ca2+ (EDTA 2 mM)", "result": -7.81, "unit": "kcal/mol"},
      {"measurement": "TΔS", "setting": "[2]; 37 °C, Ca2+ 2 mM", "result": -6.60, "unit": "kcal/mol"},
      {"measurement": "ΔG", "setting": "[2]; 37 °C, Ca2+ 2 mM", "result": -10.59, "unit": "kcal/mol"},
      {"measurement": "TΔS", "setting": "[2]; 37 °C, no Ca2+ (EDTA 2 mM)", "result": -13.21, "unit": "kcal/mol"},
      {"measurement": "ΔΔH", "setting": "[2]; 30 °C", "result": -11.6, "unit": "kcal/mol"},
      {"measurement": "ΔΔH", "setting": "[2]; 37 °C", "result": -19.4, "unit": "kcal/mol"},
      {"measurement": "ΔΔG", "setting": "[2]; 30 °C", "result": -2.6, "unit": "kcal/mol"},
      {"measurement": "ΔΔG", "setting": "[2]; 37 °C", "result": -2.67, "unit": "kcal/mol"},
      {"measurement": "factor of increase in change in enthalpy (ΔH)", "setting": "[3]; F109L vs WT, 30 °C", "result": 1.7},
      {"measurement": "factor of reduction of binding constant by F109L", "setting": "[3]; F109L vs WT, 30 °C", "result": 15},
      {"measurement": "factor of increase in change in enthalpy (ΔH)", "setting": "[3]; F109L vs WT, 37 °C", "result": 1.4},
      {"measurement": "factor of reduction of binding constant by F109L", "setting": "[3]; F109L vs WT, 37 °C", "result": 15},
      {"measurement": "factor of decrease in Ka by F109L", "setting": "[3]; F109L vs WT, temperature not stated", "result": 15},
      {"measurement": "effect of F109L mutation on binding (in words)", "setting": "[3]; F109L vs WT, listed as XPC", "result": "reduced the binding; also recorded: decreased the binding"},
      {"measurement": "TΔS", "setting": "[3]; 30 °C, Ca2+ 2 mM", "result": -4.78, "unit": "kcal/mol"},
      {"measurement": "ΔG", "setting": "[3]; 30 °C, Ca2+ 2 mM", "result": -10.85, "unit": "kcal/mol"},
      {"measurement": "TΔS", "setting": "[3]; 30 °C, no Ca2+ (EDTA 2 mM)", "result": -11.88, "unit": "kcal/mol"},
      {"measurement": "ΔG", "setting": "[3]; 30 °C, no Ca2+ (EDTA 2 mM)", "result": -8.72, "unit": "kcal/mol"},
      {"measurement": "TΔS", "setting": "[3]; 37 °C, Ca2+ 2 mM", "result": -6.20, "unit": "kcal/mol"},
      {"measurement": "ΔG", "setting": "[3]; 37 °C, Ca2+ 2 mM", "result": -10.77, "unit": "kcal/mol"},
      {"measurement": "ΔΔH", "setting": "[3]; 30 °C", "result": -13.2, "unit": "kcal/mol"},
      {"measurement": "ΔΔH", "setting": "[3]; 37 °C", "result": -17.44, "unit": "kcal/mol"},
      {"measurement": "ΔΔG", "setting": "[3]; 30 °C", "result": -1.69, "unit": "kcal/mol"},
      {"measurement": "ΔΔG", "setting": "[3]; 37 °C", "result": -2.03, "unit": "kcal/mol"},
      {"measurement": "Ka", "setting": "[4]; WT, 30 °C, Ca2+ 2 mM", "result": "59.4(9.10) 10^6 M^−1"},
      {"measurement": "ΔH", "setting": "[4]; WT, 30 °C, Ca2+ 2 mM", "result": "−23.4(0.16) kcal/mol"},
      {"measurement": "TΔS", "setting": "[4]; WT, 30 °C, Ca2+ 2 mM", "result": -12.63, "unit": "kcal/mol"},
      {"measurement": "ΔG", "setting": "[4]; WT, 30 °C, Ca2+ 2 mM", "result": -10.77, "unit": "kcal/mol"},
      {"measurement": "factor of higher affinity for P17-XPC than for R18-Sfi1", "setting": "[4]; WT, 30 °C, EDTA", "result": 7},
      {"measurement": "ΔG", "setting": "[4]; WT, 30 °C, no Ca2+ (EDTA 2 mM)", "result": -10.41, "unit": "kcal/mol"},
      {"measurement": "Ka", "setting": "[4]; WT, 37 °C, Ca2+ 2 mM", "result": "73.2(7.0) 10^6 M^−1"},
      {"measurement": "ΔH", "setting": "[4]; WT, 37 °C, Ca2+ 2 mM", "result": "−23.36(0.08) kcal/mol"},
      {"measurement": "TΔS", "setting": "[4]; WT, 37 °C, Ca2+ 2 mM", "result": -12.18, "unit": "kcal/mol"},
      {"measurement": "ΔG", "setting": "[4]; WT, 37 °C, Ca2+ 2 mM", "result": -11.18, "unit": "kcal/mol"},
      {"measurement": "factor of higher affinity for P17-XPC than for R18-Sfi1", "setting": "[4]; WT, 37 °C, EDTA", "result": 10},
      {"measurement": "TΔS", "setting": "[4]; WT, 37 °C, no Ca2+ (EDTA 2 mM)", "result": -29.94, "unit": "kcal/mol"},
      {"measurement": "difference in ΔH between P17-XPC and R18-Sfi1", "setting": "[4]; WT, EDTA, 30 °C and 37 °C", "result": 3, "unit": "kcal/mol"},
      {"measurement": "factor of decrease in binding on temperature increase", "setting": "[4]; WT, EDTA, 30 °C to 37 °C", "result": 3},
      {"measurement": "factor of decrease in ΔH on temperature increase", "setting": "[4]; WT, EDTA, 30 °C to 37 °C, becoming more negative", "result": 1.2},
      {"measurement": "effect of calcium on binding (in words)", "setting": "[4]; WT", "result": "the presence of calcium enhanced the binding"},
      {"measurement": "effect of calcium on binding (in words)", "setting": "[4]; WT, listed as XPC", "result": "Calcium was not required for binding although its presence enhanced the binding; also recorded: addition of calcium enhanced the affinity"},
      {"measurement": "affinity comparison XPC vs Sfi1 (in words)", "setting": "[4]; centrin, ITC, present and previous work", "result": "better for XPC than for other targets such as Sfi1"}
    ]}
  ]
}
